biological target: T1, aromatase (Callithrix jacchus, UniProt Q95M61); experiment: inhibition of [[…]-14C]testosterone conversion by placental microsomes, TLC autoradiography; assay type: biochemical
T1 construct: gene CYP19A1; microsomal fraction of marmoset placenta
T1 sequence (Q95M61 1-503): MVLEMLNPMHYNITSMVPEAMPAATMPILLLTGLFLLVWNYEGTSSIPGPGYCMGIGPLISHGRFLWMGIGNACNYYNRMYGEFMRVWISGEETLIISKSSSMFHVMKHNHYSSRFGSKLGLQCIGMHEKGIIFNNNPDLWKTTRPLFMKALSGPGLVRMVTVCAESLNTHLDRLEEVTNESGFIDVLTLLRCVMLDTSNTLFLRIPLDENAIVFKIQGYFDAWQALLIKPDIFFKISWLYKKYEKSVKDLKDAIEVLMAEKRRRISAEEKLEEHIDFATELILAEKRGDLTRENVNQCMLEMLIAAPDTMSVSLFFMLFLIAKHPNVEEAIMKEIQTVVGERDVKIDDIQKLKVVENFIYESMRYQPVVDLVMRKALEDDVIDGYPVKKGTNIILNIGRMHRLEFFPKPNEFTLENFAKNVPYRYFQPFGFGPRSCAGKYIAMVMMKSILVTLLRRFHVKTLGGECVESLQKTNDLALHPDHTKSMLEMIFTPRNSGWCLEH

IC50 | Compound
0.73 nM | Cc1ccc(CN(c2ccc([N+](=O)[O-])cc2)n2cnnc2)cc1 [nitro-cetrozole]
0.98 nM | Cc1ccc(CN(c2ccc(C#N)cc2)n2cnnc2)cc1 [cetrozole]
3.5 nM | Cc1cccc(CN(c2ccc(C#N)cc2)n2cnnc2)c1 [meta-cetrozole]
0.68 nM | Cc1ccc(CN(c2ccc(C#N)cc2)n2cncn2)cc1 [iso-cetrozole]
